Consider one compound from US20110294736A1, “COMPOUNDS AND METHODS FOR THE TREATMENT OF AUTOIMMUNE AND INFLAMMATORY DISEASE” (THE PROVOST, FELLOWS AND SCHOLARS OF THE HOLY AND UNDIVIDED …, priority 2008, published 2011).

Molecules are shown by their SMILES.

This assay relates to BMDC. Kind of assay: IL-12p40, IL-23, IL-12p70 and IL-10 ELISA in BMDC with p38 or ERK inhibitor, Tri-DAP and LPS or CpG. The format is cell-based, murine. The conditions noted are these: ERK inhibitor 5 μM 30 minutes before Tri-DAP 100 μg/ml. How it is done:
BMDC (1×10^6) were pretreated with the p38 inhibitor, SB203580 (5 μM—FIGS. 10-11), or the ERK inhibitor UO126 (5 μM—FIGS. 12-13) for 30 minutes prior to stimulation with Tri-DAP (100 μg/ml) or medium alone. After 2 hours the cells were then stimulated with LPS (100 ng/ml—FIGS. 10 and 12), with the TLR agonist CpG (5 μg/ml—FIGS. 11 and 13) or with medium alone. Supernatants were collected after 24 hours and IL-12p40, IL-23, IL-12p70 and IL-10 concentrations were quantified by ELISA.
A general note: An ELISA detects its analyte on a solid surface through an enzyme-linked reagent.

In the case of `N#CC(=C(/N)Sc1ccccc1N)/C(C#N)=C(\N)Sc1ccccc1N` [U0126, reference compound], where the note is “LPS 100 ng/ml”, the “enhancement of LPS induced IL-12p70 by Tri-DAP” value is listed as “only marginally affected” and the “enhancement of LPS induced IL-23 production by Tri-DAP” value is “suppressed”. Besides, the “IL-10 production by Tri-DAP with LPS or with CpG” value (LPS 100 ng/ml or CpG 5 μg/ml) is “suppressed”.
